These results are taken from PMC3463587, “A Series of Beta-Carboline Derivatives Inhibit the Kinase Activity of PLKs” (PLoS ONE, 2012).

One assay deals with HepG2 cells. The experiment in a line: MTT cell proliferation assay, HepG2. Type of assay: cell-based. The settings on record: Homo sapiens, 48 hr. An excerpt: (§1) BI2536 was purchased from Selleck (Selleck, USA).
(Formazan colour is commonly taken as a measure of viable cells.)

In another assay the test system is PC3 cells. The experiment in a line: MTT cell proliferation assay, PC3. Type of assay: cell-based. As to conditions: Homo sapiens, PC-3, 48 hr.
Excerpt: as §1

For the next assay, the system named is MG63 cells. Nature of the assay: MTT cell proliferation assay, MG63. Type of assay: cell-based. The settings on record: Homo sapiens, MG-63, 48 hr.
Excerpt: as §1

In assay [1] the test system is four cancer cell lines (HepG2, MG63, HeLa and PC3). The experiment in a line: Growth inhibition of four cancer cell lines. Type of assay: cell-based, Human. An excerpt: In order to find more efficient antitumor small molecules targeting PLK1, we synthesized additional 18 beta-carboline compounds and the structures of these compounds are shown in Figure 1. The growth inhibition of four cancer cell lines (HepG2, MG63, HeLa and PC3) by these compounds was examined. […] We selected DH281, DH285 and DH287 for further studies.

Another assay relates to HeLa cells. The experiment in a line: MTT cell proliferation assay, HeLa. Type of assay: cell-based. As to conditions: Homo sapiens, 48 hr.
Excerpt: as §1

The subject of assay [2] is cdc5-2 mutant yeast cells. The experiment in a line: Yeast growth inhibition (MIC), cdc5-2 mutant. As to conditions: 10 µg/ml, 25°C.
Procedure: (§2) The Cdc5 kinase is the functional homologue of PLK1 in budding yeast and the incubation of cdc5-2 mutants at 37°C impairs the kinase activity and stops cell growth. […] We also compared the sensitivity of wild-type and cdc5-2 mutant cells to the selected compounds at different concentrations. […] The temperature sensitive cdc5-2 mutants and wild-type strains were used. […] After incubation at 25°C for 24 hr, the growth of the yeast cells was determined by measuring OD600.
The subject of a further assay is wild-type yeast cells. Nature of the assay: Yeast growth inhibition (MIC), wild-type. As to conditions: 10 µg/ml, 25°C.

Procedure for wild-type yeast cells: as §2

Turning to `CCCCn1c2ccccc2c2cc(C(=O)NCCO)nc(C)c21` [DH286], the IC50 is over 150 µM in the assay with HepG2 cells, 72.96 ± 0.53 µM with PC3 cells, 46.09 ± 0.37 µM in the assay on MG63 cells and 65.81 ± 0.23 µM with HeLa cells. In assay [1], the “antitumor activity (growth inhibition)” value is “did not show obvious antitumor activity”.

For `Cc1nccc2c3ccc(OCc4ccccc4)cc3n(Cc3ccccc3)c12` [DH288], the IC50 with HepG2 cells, with PC3 cells, in the assay on MG63 cells and in the assay with HeLa cells was over 100 µM in each case. For the same molecule, in assay [1], the “antitumor activity (growth inhibition)” value is “did not show obvious antitumor activity”.

Turning to `Fc1ccc(Cn2c3ccccc3c3cc[n+](Cc4ccccc4)c(Cc4ccccc4)c32)cc1` [DH271], the IC50 worked out at 4.01 ± 0.1 µM in the assay with HepG2 cells, 8.38 ± 0.24 µM in the assay with PC3 cells, 5.97 ± 0.06 µM in the assay with MG63 cells and 3.86 ± 0.44 µM in the assay with HeLa cells.

`CC[C@@H]1C(=O)N(C)c2cnc(Nc3ccc(C(=O)NC4CCN(C)CC4)cc3OC)nc2N1C1CCCC1` [BI2536, reference compound]: the “growth inhibition of cdc5-2 mutant cells” value in assay [2] was “complete growth inhibition”. The “growth of wild-type cells” value with wild-type yeast cells is listed as “unaffected”.

For `Clc1cccc(C[n+]2ccc3c4ccccc4n(CCCc4ccccc4)c3c2)c1` [DH273], the IC50 with HepG2 cells amounted to 5.08 ± 0.38 µM; in the assay on PC3 cells it was 3.86 ± 0.12 µM; in the assay on MG63 cells it was 4.21 ± 0.45 µM; in the assay on HeLa cells, 3.77 ± 0.25 µM.

As for `Clc1cccc(Cn2c3ccccc3c3cc[n+](Cc4ccccc4)cc32)c1` [DH277], the IC50 was determined as 18.8 ± 0.29 µM in the assay with HepG2 cells, 10.8 ± 0.21 µM in the assay with PC3 cells, 20.4 ± 0.16 µM in the assay with MG63 cells and 8.48 ± 0.23 µM in the assay on HeLa cells.

As for `Cc1nccc2c3ccc(OCc4ccc(F)cc4)cc3n(CCCc3ccccc3)c12` [DH279], the IC50 in the assay on HepG2 cells, in the assay on PC3 cells, in the assay with MG63 cells and in the assay on HeLa cells was over 100 µM each time. The “antitumor activity (growth inhibition)” value in assay [1] was “did not show obvious antitumor activity”.

For the molecule `Cc1nccc2c3ccc(OCc4cccc(Cl)c4)cc3n(CCCc3ccccc3)c12` [DH278], the IC50 in the assay on HepG2 cells is over 100 µM; in the assay on PC3 cells, 80.21 ± 0.31 µM; in the assay on MG63 cells it was over 150 µM; in the assay with HeLa cells it was 63.14 ± 0.47 µM. Further, the “antitumor activity (growth inhibition)” value in assay [1] is “did not show obvious antitumor activity”.

In the case of `COc1ccc2c3ccnc(C)c3n(Cc3cccc(Cl)c3)c2c1` [DH145], the IC50 with HepG2 cells came to 68.45 ± 0.02 µM; in the assay on PC3 cells, 75.39 ± 0.16 µM; in the assay with MG63 cells it was 73.12 ± 0.31 µM; in the assay on HeLa cells it was 40.5 ± 0.14 µM. Moreover, the “antitumor activity (growth inhibition)” value in assay [1] is recorded as “did not show obvious antitumor activity”.

On to `c1ccc(CCCn2c3ccccc3c3cc[n+](Cc4ccccc4)cc32)cc1` [DH272], for which the IC50 with HepG2 cells worked out at 12.47 ± 0.12 µM; in the assay on PC3 cells it was 22.1 ± 0.43 µM; in the assay with MG63 cells, 12.8 ± 0.28 µM; in the assay on HeLa cells, 8.16 ± 0.37 µM.

For `Cc1c2c(cc[n+]1Cc1ccccc1)c1ccc(OCc3cccc(Cl)c3)cc1n2CCCc1ccccc1` [DH280], the IC50 in the assay with HepG2 cells amounted to 2.59 ± 0.16 µM; with PC3 cells, 2.34 ± 0.06 µM; in the assay with MG63 cells, 1.86 ± 0.33 µM; in the assay with HeLa cells it was 0.99 ± 0.14 µM. Besides, the “antitumor activity (growth inhibition)” value in assay [1] is given as “very strong growth inhibition”.

On to `Fc1ccc(C[n+]2ccc3c4ccccc4n(CCCc4ccccc4)c3c2)cc1` [DH274], for which the IC50 in the assay with HepG2 cells came out at 7.37 ± 0.26 µM; in the assay on PC3 cells, 6.07 ± 0.27 µM; in the assay with MG63 cells, 6.38 ± 0.19 µM; in the assay with HeLa cells, 5.73 ± 0.18 µM.

Take `Fc1ccc(C[n+]2ccc3c4ccccc4n(Cc4cccc(Cl)c4)c3c2)cc1` [DH275]: the IC50 stood at 10.4 ± 0.37 µM in the assay with HepG2 cells, 6.36 ± 0.11 µM with PC3 cells, 7.32 ± 0.22 µM with MG63 cells and 5.83 ± 0.03 µM in the assay with HeLa cells.

For the molecule `Clc1cccc(Cn2c3ccccc3c3cc[n+](Cc4cccc(Cl)c4)cc32)c1` [DH276], the IC50 in the assay on HepG2 cells was 11.2 ± 0.22 µM; in the assay with PC3 cells it was 6.65 ± 0.4 µM; in the assay with MG63 cells, 7.3 ± 0.06 µM; with HeLa cells, 6.04 ± 0.17 µM.

Broadly, the IC50 is the midpoint of a concentration-inhibition curve. Higher therefore signals weaker potency in that assay.
